For 44 compounds, IC50 results are on record in patent US20250074888A1, “PYRIDAZINE DERIVATIVES AS MODULATORS OF NLRP3 INFLAMMASOME AND RELATED METHODS” (Neumora Therapeutics, Inc., priority 2021, published 2025).

The target of one test is NLRP3 inflammasome (Homo sapiens, UniProt Q96P20). Briefly: NLRP3 inflammasome activation in THP1 macrophages (LPS priming, nigericin), IL-1β AlphaLISA. It is filed as cell-based. To be noted: PMA-differentiated THP1, LPS 20 ng/ml 3 hrs, compound 1 hr, Nigericin 6.7 uM 3 hrs, supernatant.
NLRP3 inflammasome, sequence (Q96P20 whole entry): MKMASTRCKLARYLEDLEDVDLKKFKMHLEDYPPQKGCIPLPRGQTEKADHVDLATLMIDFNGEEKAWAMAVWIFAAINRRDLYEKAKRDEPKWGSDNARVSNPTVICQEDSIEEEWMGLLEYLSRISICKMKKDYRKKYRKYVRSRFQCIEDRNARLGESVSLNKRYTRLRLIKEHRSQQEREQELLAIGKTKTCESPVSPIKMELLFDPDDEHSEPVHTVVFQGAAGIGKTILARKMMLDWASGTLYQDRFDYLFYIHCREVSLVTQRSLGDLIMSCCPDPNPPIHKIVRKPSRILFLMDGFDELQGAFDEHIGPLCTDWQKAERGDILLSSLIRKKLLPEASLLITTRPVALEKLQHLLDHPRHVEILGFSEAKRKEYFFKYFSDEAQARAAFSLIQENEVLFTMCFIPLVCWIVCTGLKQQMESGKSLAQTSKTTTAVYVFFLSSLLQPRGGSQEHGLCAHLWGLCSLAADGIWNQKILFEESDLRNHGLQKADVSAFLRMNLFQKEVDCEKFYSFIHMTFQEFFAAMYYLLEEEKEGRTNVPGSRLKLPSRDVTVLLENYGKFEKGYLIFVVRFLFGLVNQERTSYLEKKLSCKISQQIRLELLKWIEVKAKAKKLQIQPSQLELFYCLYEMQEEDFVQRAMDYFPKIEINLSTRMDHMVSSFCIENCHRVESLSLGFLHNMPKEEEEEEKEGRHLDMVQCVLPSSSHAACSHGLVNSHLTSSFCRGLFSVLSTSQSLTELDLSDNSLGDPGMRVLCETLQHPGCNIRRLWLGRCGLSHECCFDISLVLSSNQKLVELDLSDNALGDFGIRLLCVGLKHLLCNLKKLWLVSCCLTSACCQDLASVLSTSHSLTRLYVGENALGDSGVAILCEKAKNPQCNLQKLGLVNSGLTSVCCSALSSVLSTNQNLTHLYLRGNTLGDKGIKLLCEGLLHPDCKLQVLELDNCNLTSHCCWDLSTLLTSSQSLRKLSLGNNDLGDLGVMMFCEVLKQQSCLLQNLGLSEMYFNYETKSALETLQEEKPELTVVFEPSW
The subject of another test is IL-6. In words: IL-6 release from LPS-primed, nigericin-treated THP1 macrophages, Hu IL-6 AlphaLISA. Format: cell-based. To be noted: Homo sapiens, THP-1; PMA-differentiated THP1, LPS 20 ng/ml 3 hrs, compound 1 hr, Nigericin 6.7 uM 3 hrs, supernatant.

On to `Cc1ccc(-c2cc(C(F)(F)F)c(N[C@@H]3CCCN(C)C3)nn2)cc1` [compound 91], for which the results for the IC50 at NLRP3 inflammasome and with IL-6 were > 1000 nM and > 10000 nM, respectively.
In the same order, the values of `Cc1cccc(-c2cc(C)c(N[C@@H]3CCCN(C)C3)nn2)c1` [compound 92] are > 1000 nM and > 10000 nM.
As for `Cc1cc(N[C@@H]2CCCN(C)C2)nnc1-c1ccc(C2CC2)cc1` [compound 93], the concentration for half-maximal inhibition (IC50) was 10 to 50 nM at NLRP3 inflammasome and > 10000 nM with IL-6.
`Cc1cc(-c2ccc(C3CC3)cc2)nnc1N[C@@H]1CCCN(C)C1` [compound 94]: the 50% inhibitory concentration (IC50) against NLRP3 inflammasome is > 1000 nM; in the test with IL-6, > 10000 nM.
For `Cc1cc(-c2ccc(C3CCC3)cc2)nnc1N[C@@H]1CCCN(C)C1` [compound 95], the figures for the IC50 on NLRP3 inflammasome and in the test with IL-6 were > 1000 nM and 5000 to 10000 nM, respectively.
For `Cc1cc(N[C@@H]2CCCN(C)C2)nnc1-c1ccc(F)cc1C#N` [compound 96], the IC50 against NLRP3 inflammasome is > 1000 nM; with IL-6 it was > 10000 nM.
Consider `Cc1cc(-c2ccc(F)cc2C#N)nnc1N[C@@H]1CCCN(C)C1` [compound 97], for which the IC50 against NLRP3 inflammasome is > 1000 nM; in the test on IL-6 it was > 10000 nM.
As to `Cc1cc(-c2ccc(F)cc2F)nnc1N[C@@H]1CCCN(C)C1` [compound 98], the IC50 at NLRP3 inflammasome was > 1000 nM; with IL-6, > 10000 nM.
The corresponding values for `Cc1cc(-c2nnc(N[C@@H]3CCCN(C)C3)cc2C)ccc1C(F)(F)F` [compound 99] are 500 to 1000 nM and > 10000 nM.
With `Cc1cc(-c2cc(C)c(N[C@@H]3CCCN(C)C3)nn2)ccc1C(F)(F)F` [compound 100], the results for the IC50 against NLRP3 inflammasome and with IL-6 were > 1000 nM and > 10000 nM, respectively.
`COc1cc(N[C@@H]2CCCN(C)C2)nnc1-c1ccc(C(F)(F)F)cc1` [compound 101]: the IC50 on NLRP3 inflammasome was > 1000 nM; in the test on IL-6, > 10000 nM.
In the case of `COc1cc(-c2ccc(C(F)(F)F)cc2)nnc1N[C@@H]1CCCN(C)C1` [compound 102], the IC50 against NLRP3 inflammasome was > 1000 nM; in the test with IL-6, > 10000 nM.
For the compound `CN1CCC[C@@H](Nc2nnc(-c3ccc(C(F)(F)F)cc3)cc2C#N)C1` [compound 103], the results for the IC50 against NLRP3 inflammasome and in the test on IL-6 were > 1000 nM and > 10000 nM, respectively.
The corresponding values for `Cc1cc(N[C@@H]2CCCN(C)C2)nnc1-c1ccc(O)cc1` [compound 104] are > 1000 nM and > 10000 nM.
As to `Cc1cc(-c2ccc(C(F)(F)F)c(Cl)c2)nnc1N[C@@H]1CCCN(C)C1` [compound 105], the results for the IC50 at NLRP3 inflammasome and in the test on IL-6 were > 1000 nM and > 10000 nM, respectively.
Turning to `Cc1cc(-c2ccc(N[C@@H]3CCCN(C)C3)nn2)cc(C)c1F` [compound 106], the IC50 was > 1000 nM against NLRP3 inflammasome and > 10000 nM with IL-6.
With `Cc1cc(-c2cc(C)c(F)c(C)c2)nnc1N[C@@H]1CCCN(C)C1` [compound 107], the values for the IC50 against NLRP3 inflammasome and with IL-6 were > 1000 nM and > 10000 nM, respectively.
Consider `Cc1cc(N[C@@H]2CCCN(C)C2)nnc1-c1ccc(F)c(C#N)c1` [compound 108], for which the IC50 was > 1000 nM against NLRP3 inflammasome and > 10000 nM in the test with IL-6.
With `Cc1cc(-c2ccc(F)c(C#N)c2)nnc1N[C@@H]1CCCN(C)C1` [compound 109], the values for the half-maximal inhibitory concentration (IC50) at NLRP3 inflammasome and in the test on IL-6 were > 1000 nM and > 10000 nM, respectively.
The corresponding values for `Cc1cc(F)cc(C)c1-c1ccc(N[C@@H]2CCCN(C)C2)nn1` [compound 110] are > 1000 nM and 5000 to 10000 nM.
The corresponding values for `CN1CCC[C@@H](Nc2nnc(-c3ccc(C(F)(F)F)cc3)cc2C(F)(F)F)C1` [compound 111] are > 1000 nM and > 10000 nM.
In the case of `Cc1cc(-c2cc(C)c(N[C@@H]3CCCN(C)C3)nn2)ccc1F` [compound 112], the IC50 was > 1000 nM against NLRP3 inflammasome and > 10000 nM in the test on IL-6.
Turning to `Cc1cc(-c2ccc(C(F)(F)F)c(C#N)c2)nnc1N[C@@H]1CCCN(C)C1` [compound 113], the concentration for half-maximal inhibition (IC50) was > 1000 nM against NLRP3 inflammasome and > 10000 nM in the test on IL-6.
For the compound `Cc1cc(N[C@@H]2CCCN(CC(F)(F)F)C2)nnc1-c1ccc(C(F)(F)F)cc1` [compound 114], the figures for the IC50 on NLRP3 inflammasome and in the test on IL-6 were > 1000 nM and > 10000 nM, respectively.
In the same order, the values of `Cc1cc(N[C@@H]2CCCN(CC(F)(F)F)C2)nnc1-c1ccc(F)cc1` [compound 115] are > 1000 nM and 5000 to 10000 nM.
Turning to `Cc1cc(N[C@@H]2CCCN(CC(F)F)C2)nnc1-c1ccc(F)cc1` [compound 116], the IC50 against NLRP3 inflammasome was > 1000 nM; in the test with IL-6 it was > 10000 nM.
As for `Cc1cc(-c2ccc(F)c(F)c2)nnc1N[C@@H]1CCCN(C)C1` [compound 117], the half-inhibitory concentration (IC50) against NLRP3 inflammasome was > 1000 nM; in the test with IL-6, > 10000 nM.
With `Cc1cc(N[C@H]2CCCN(C)C2)nnc1-c1ccc(C(F)(F)F)cc1` [compound 118], the IC50 against NLRP3 inflammasome is > 1000 nM; with IL-6, > 10000 nM.
`Cc1cc(N[C@H]2CN(C)CC(F)(F)C2)nnc1-c1ccc(F)cc1` [compound 119]: the results for the IC50 against NLRP3 inflammasome and with IL-6 were > 1000 nM and > 10000 nM, respectively.
Regarding `Cc1cc(N[C@@H]2CCCN(C3CC3)C2)nnc1-c1ccc(F)cc1` [compound 120], the figures for the IC50 against NLRP3 inflammasome and in the test on IL-6 were 50 to 100 nM and > 10000 nM, respectively.
In the case of `Cc1cc(N[C@H]2CN(C)CC[C@H]2F)nnc1-c1ccc(F)cc1` [compound 121], the IC50 was 100 to 500 nM against NLRP3 inflammasome and > 10000 nM in the test with IL-6.
Regarding `CCN1CCC[C@@H](Nc2cc(C)c(-c3ccc(F)cc3)nn2)C1` [compound 122], the IC50 against NLRP3 inflammasome was 10 to 50 nM; with IL-6, > 10000 nM.
As for `Cc1cc(Cl)ccc1-c1nnc(N[C@@H]2CCCN(C)C2)cc1C` [compound 123], the IC50 at NLRP3 inflammasome was ≤ 10 nM; in the test on IL-6, > 10000 nM.
For the compound `Cc1cc(Cl)ccc1-c1cc(C)c(N[C@@H]2CCCN(C)C2)nn1` [compound 124], the IC50 against NLRP3 inflammasome was 10 to 50 nM; in the test on IL-6, 5000 to 10000 nM.
As for `Cc1cc(Cl)ccc1-c1ccc(N[C@@H]2CCCN(C)C2)nn1` [compound 125], the IC50 is 50 to 100 nM on NLRP3 inflammasome and > 10000 nM with IL-6.
`CN1CCC[C@@H](Nc2ccc(-c3ccc(F)cc3)nn2)C1` [compound 126]: the half-inhibitory concentration (IC50) against NLRP3 inflammasome is > 1000 nM; in the test with IL-6, > 10000 nM.
The corresponding values for `Cc1cc(N[C@@H]2CCCN(C)C2)nnc1-c1ccc(Cl)cc1` [compound 127] are ≤ 10 nM and > 10000 nM.
For the compound `Cc1cc(-c2ccc(Cl)cc2)nnc1N[C@@H]1CCCN(C)C1` [compound 128], the IC50 is 100 to 500 nM against NLRP3 inflammasome and > 10000 nM in the test with IL-6.
As to `CN1CCC[C@@H](Nc2ccc(-c3ccc(Cl)cc3)nn2)C1` [compound 129], the IC50 was 50 to 100 nM against NLRP3 inflammasome and > 10000 nM with IL-6.
The corresponding values for `CN1CCC[C@@H](Nc2ccc(-c3ccc(F)cc3C(F)(F)F)nn2)C1` [compound 130] are 10 to 50 nM and 5000 to 10000 nM.
In the case of `Cc1cc(N[C@H]2CCCN(C(C)C)C2)nnc1-c1ccc(C(F)(F)F)cc1` [compound 131], the IC50 on NLRP3 inflammasome is 500 to 1000 nM; in the test on IL-6, > 10000 nM.
Take `Cc1cc(F)ccc1-c1nnc(N[C@@H]2CCCN(C)C2)cc1C` [compound 132]: the IC50 is 10 to 50 nM against NLRP3 inflammasome and > 10000 nM in the test on IL-6.
Regarding `Cc1cc(F)ccc1-c1cc(C)c(N[C@@H]2CCCN(C)C2)nn1` [compound 133], the IC50 was 10 to 50 nM at NLRP3 inflammasome and > 10000 nM with IL-6.
In the same order, the values of `Cc1cc(F)ccc1-c1ccc(N[C@@H]2CCCN(C)C2)nn1` [compound 134] are 100 to 500 nM and > 10000 nM.
